Measurements published in US7507707B2, “Methods of inducing ovulation using a non-polypeptide camp level modulator” (Laboratoires Serono SA, priority 2001, dated 2009).

Legend:
[1] = system: rat ovarian granulosa cells; assay: Rat ovarian granulosa cell cAMP levels, alone or with gonadotropins in vitro (cAMP specific RIA); format: cell-based; conditions: 25 micromolar compound with subeffective (0.1 pM) gonadotropin, 48 hrs
Procedure: Ovaries were removed from immature 25 day old, hypophysectomized, diethylstilbesterol treated Sprague-Dawley rats. The ovaries were repeatedly punctured with 27 gauge needles to liberate granulosa cells from the follicles. Cells were washed and re-suspended in McCoys 5A media+0.1% BSA+2 μM androstenedione. Viable cells in number of 100,000 were loaded into 6-well tissue culture dishes in a 1.0 ml volume (with Compound 1 and Compound 2 at a concentration of 25 micromolar, either alone or in conjunction with a low, 0.1 pM dose of gonadotropin). Plates were incubated in a 37° C. incubator, 100% humidity, 5.0% CO2 for 48 hrs. Conditioned media were assayed in a cAMP specific RIA. Results are expressed as mean plus or minus standard deviations.

immature rats = assay: Ovulation and fertility in FSH/PMSG pretreated immature rats; format: in vivo, rat; conditions: single subcutaneous injection
Procedure: Follicular maturation was induced in immature rats with FSH (4.33 IU/rat/injection; bid×2 days) and Pregnant Mare's Serum Gonadotropin (PMSG) (1.5 IU/rat/injection; bid×2 days). […] FSH and PMSG induced rats were then treated with either Compound 2 (12 rats) or vehicle (12 rats) by subcutaneous administration. In one cohort of rats (6 rats per treatment), ovulation was determined 18 hours after Compound 2 or vehicle administration by counting oocytes in oviduct. To assess fertility, another cohort of rats (6 rats per treatment) were individually placed overnight in a cage together with a single adult male rat of proven fertility. The next day, male rats were removed and the females were caged together by group until the day of parturition. The number of live full-term pups observed at the time of parturition was recorded. […] Results for both ovulation and live pups are expressed as mean plus or minus standard deviations.

immature female rats [2] = assay: In vivo ovulation model: FSH-pretreated immature rats, oocytes counted in oviduct after 18 hours; set-up: species or system rat
From the text: The role of FSH in any ovulation induction regimen is for promoting follicular development and maturation, not ovulation induction.
All injections were subcutaneous. Results are expressed as mean plus or minus standard deviations. […] The effects of Compound 1, a known PDE inhibitor are shown.
Data represent average number of oocytes in oviducts of all rats in each group and frequency of ovulating rats. […] Results are expressed as mean plus or minus standard deviations.
Data represent average number of oocytes in oviducts of all rats in each group and frequency of ovulating rats. Results are expressed as mean plus or minus standard deviations.
Following FSH induced follicular maturation (2.16 IU/rat/injection; bid×2 days) Compound 2 was either injected subcutaneously (subcutis) or administered by oral gavage. Ovulation was determined 18 hours after Compound 2 administration by counting oocytes in oviduct. Data represent average number of oocytes in oviducts of all rats in each group and frequency of ovulating rats. Results are expressed as mean plus or minus standard deviations.
Following FSH induced follicular maturation (2.16 IU/rat/injection; bid×2 days) […] was either injected subcutaneously (subcutis) or administered by oral gavage. Ovulation was determined 18 hours after Compound 2 administration by counting oocytes in oviduct. Data represent average number of oocytes in oviducts of all rats in each group and frequency of ovulating rats. Results are expressed as mean plus or minus standard deviations.

immature female rats [3] = assay: Follicle maturation in vivo: sub-optimal FSH with co-administered PDE inhibitor, ovulatory hCG, oocytes counted in oviduct; set-up: species or system rat
Procedure: Mature ovarian follicles generated in immature female rats by treatment with a sub-optimal dose of FSH (1.08 IU/rat/injection; bid×3 days) with and without co-administration of Compound 1 (0.1, 1, 10, and 50 mg/kg/injection: bid×3 days). […] The PDE inhibitors were given in conjunction with sub-optimal doses of FSH. All injections were subcutaneously administered. […] Results are expressed as mean plus or minus standard deviations. […] As also noted in FIG. 3, a PDE inhibitor (Compound 1) inhibited (rather than stimulated) both ovulation administered at 50 mg/kg.

[4] = subcutaneous injection alone, without hCG
[5] = single subcutaneous injection co-administered with sub-effective dose of hCG

| Structure (SMILES) | cAMP levels in conditioned media [1] | ovulation (oocytes in oviduct) (immature rats; 18 hours) | number of live full-term pups at the time of parturition (immature rats; mated overnight) | ovulation (oocytes in oviduct) (immature female rats [2]; oral gavage, without hCG) | ovulation (oocytes in oviduct) (immature female rats [2]; [4]) | ovulation (oocytes in oviduct, frequency of ovulating rats) (immature female rats [3]; 50 mg/kg/injection bid x 3 days s.c. with sub-optimal FSH (1.08 IU), ovulatory hCG 20 IU) | ability of a sub-optimal dose of FSH to prepare follicles to ovulate (immature female rats [3]; increasing doses 0.1, 1, 10, 50 mg/kg/injection bid x 3 days s.c. with sub-optimal FSH) | ovulation (oocytes in oviduct) (immature female rats [2]; [5]) |
| --- | --- | --- | --- | --- | --- | --- | --- | --- |
| COc1ccc(C(=O)Nc2c(Cl)cncc2Cl)cc1OC1CCCC1 [Compound 2, 3-(Cyclopentyloxy)-N-(3,5-dichloropyridin-4-yl)-4-methoxybenzamide] | significant increase | induction of ovulation | increased number of live pups | induction of ovulation | induction of ovulation | – | – | – |
| COc1ccc([C@]2(C#N)CC[C@@H](C(=O)O)CC2)cc1OC1CCCC1 [Compound 1, Cis-4-cyano-4-(3-(cyclopentyloxy)-4-methoxyphenyl)cyclohexane-1-carboxylic acid] | significant increase | – | – | – | induction of ovulation | inhibited | failed to enhance | induction of ovulation |
| Clc1nc2c(N3CCCC3)nc(N3CCNCC3)nc2nc1NCc1ccccc1 [Compound 4, 7-Benzylamino-6-chloro-2-piperazino-4-pyrrolidinopteridine] | – | – | – | – | little or no ovulation | – | – | induction of ovulation |
| CCOc1cc2cc(CO)c(CO)c(-c3ccnc(-n4nc(-c5cccnc5)c5ccccc5c4=O)c3)c2cc1OCC.Cl [Compound 3, 2-(4-(6,7-Diethoxy-2,3-bis(hydroxymethyl)naphthalen-1-yl)pyridin-2-yl)-4-(3-pyridyl) pthalazin-1 (2H)-one hydrochloride] | – | – | – | induction of ovulation | induction of ovulation | – | – | – |
